Reference: ChEMBL document CHEMBL4414573, “Competitive Binding Assay with an Umbelliferone-Based Fluorescent Rexinoid for Retinoid X Receptor Ligand Screening” (J Med Chem, 2019)
pKi: −log10 of the molar value.

Target: T1, Retinoic acid receptor RXR-alpha (Homo sapiens, UniProt P19793)
T1 sequence (P19793 whole entry): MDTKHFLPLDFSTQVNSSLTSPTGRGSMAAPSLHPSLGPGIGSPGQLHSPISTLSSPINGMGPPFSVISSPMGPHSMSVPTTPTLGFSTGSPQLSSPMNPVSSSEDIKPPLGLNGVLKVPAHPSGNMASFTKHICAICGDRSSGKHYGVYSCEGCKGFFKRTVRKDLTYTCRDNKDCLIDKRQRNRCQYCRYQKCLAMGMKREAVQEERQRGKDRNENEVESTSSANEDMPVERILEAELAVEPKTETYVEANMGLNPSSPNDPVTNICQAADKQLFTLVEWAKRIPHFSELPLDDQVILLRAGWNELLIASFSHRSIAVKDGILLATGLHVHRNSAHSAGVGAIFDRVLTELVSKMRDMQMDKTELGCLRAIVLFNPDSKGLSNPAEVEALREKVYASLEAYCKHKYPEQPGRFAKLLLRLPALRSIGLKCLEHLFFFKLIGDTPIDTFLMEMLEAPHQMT
Test: Displacement of CU-6PMN from human RXRalpha LBD incubated for 2 hrs by fluorescence based assay; call rule not given here

pKi (read-out: Ki)	Ki	Compound
5.12		CC/C=C\C/C=C\C/C=C\C/C=C\C/C=C\CCCC(=O)O [ICOSAPENT]
	Not Active	CCCCCCCCCCCCCCCC(=O)O [PALMITIC ACID]
